# Data published in US10246469B2, “Biaryl kinase inhibitors” (BRISTOL-MYERS SQUIBB COMPANY, priority 2015, dated 2019).
# pIC50: −log10 of the molar value.
# Target: T1, GST-Xa-hAAK1 (Homo sapiens, UniProt Q2M2I8)
# T1 construct: GST (N); Factor Xa cleavage site (Xa) (internal); made in house
# Assay: AAK1 Kinase Assay
# Format: biochemical
# Details: bacterially expressed GST-Xa-hAAK1 3.5 nM; ATP 22 μM; fluoresceinated peptide 1.5 μM; 3 hours at room temperature; Caliper LabChip 3000
# Experimental: The assays were performed in U-bottom 384-well plates. The final assay volume was 30 μl prepared from 15 μl additions of enzyme and substrates (fluoresceinated peptide (5-FAM)-Aha-[…]-NH2 and ATP) and test compounds in assay buffer (10 mM Tris-HCL pH 7.4, 10 mM MgCl2, 0.01% Tween-20 and 1.0 mM DTT). The reactions were initiated by the combination of bacterially expressed, GST-Xa-hAAK1 with substrates and test compounds. The reactions were incubated at room temperature for 3 hours and terminated by adding 60 μl of 35 mM EDTA buffer to each sample. The reactions were analyzed on the Caliper LabChip 3000 (Caliper, Hopkinton, Mass.) by electrophoretic separation of the fluorescent substrate and phosphorylated product. […] The final concentration of reagents in the assays are ATP, 22 μM; (5-FAM)-Aha-[…]-NH2, 1.5 μM; GST-Xa-hAAK1, 3.5 nM; and DMSO, 1.6%. […] Compounds were dissolved at 10 mM in dimethylsulfoxide (DMSO) and evaluated at eleven concentrations. IC50 values were derived by non-linear regression analysis.
# T1 sequence (Q2M2I8 whole entry): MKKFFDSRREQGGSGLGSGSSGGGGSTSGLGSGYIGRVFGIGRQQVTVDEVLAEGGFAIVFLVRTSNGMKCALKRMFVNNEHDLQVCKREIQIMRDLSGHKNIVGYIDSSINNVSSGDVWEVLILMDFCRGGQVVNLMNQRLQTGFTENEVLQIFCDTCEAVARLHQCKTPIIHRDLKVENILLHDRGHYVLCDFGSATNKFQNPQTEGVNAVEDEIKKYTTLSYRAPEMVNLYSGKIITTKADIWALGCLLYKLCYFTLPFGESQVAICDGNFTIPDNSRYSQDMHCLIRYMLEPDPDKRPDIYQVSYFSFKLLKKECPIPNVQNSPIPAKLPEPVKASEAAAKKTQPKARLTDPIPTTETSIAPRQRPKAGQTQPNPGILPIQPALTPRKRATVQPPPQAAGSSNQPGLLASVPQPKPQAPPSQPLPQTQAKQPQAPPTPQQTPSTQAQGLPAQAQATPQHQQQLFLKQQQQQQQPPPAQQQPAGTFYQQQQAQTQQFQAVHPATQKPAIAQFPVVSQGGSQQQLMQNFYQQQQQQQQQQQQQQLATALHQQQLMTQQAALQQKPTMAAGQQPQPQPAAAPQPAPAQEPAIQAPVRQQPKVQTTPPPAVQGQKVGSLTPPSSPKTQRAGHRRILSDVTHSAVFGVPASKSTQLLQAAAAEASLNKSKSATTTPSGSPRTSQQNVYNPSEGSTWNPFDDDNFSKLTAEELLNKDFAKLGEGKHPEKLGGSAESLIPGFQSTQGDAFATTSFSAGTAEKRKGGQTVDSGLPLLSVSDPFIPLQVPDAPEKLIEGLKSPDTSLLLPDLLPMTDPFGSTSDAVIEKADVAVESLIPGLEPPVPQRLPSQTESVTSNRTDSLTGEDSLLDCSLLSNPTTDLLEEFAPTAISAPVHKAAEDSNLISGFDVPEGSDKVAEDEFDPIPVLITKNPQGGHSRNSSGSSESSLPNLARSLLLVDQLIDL
row,SMILES,pIC50
1,"CC(C)C[C@](C)(N)COc1ccc(-c2ccnc(Nc3nccs3)c2)cc1C(F)(F)F [Example 256, (S)—N-(4-(4-((2-amino-2,4-dimethylpentyl)oxy)-3-(trifluoromethyl)phenyl)pyridin-2-yl)thiazol-2-amine]",9.09
2,"CC(C)C[C@](C)(N)COc1ccc(-c2ccnc(NC(=O)CC3CCCCC3)c2)cc1C(F)(F)F [Example 394, (S)—N-(4-(4-((2-amino-2,4-dimethylpentyl)oxy)-3-(trifluoromethyl)phenyl)pyridin-2-yl)-2-cyclohexylacetamide]",8.70
3,"CC(C)C[C@](C)(N)COc1ccc(-c2ccnc(NC3CCC(F)C3)c2)cc1Cl (stereo partly drawn) [Example 334, 4-(4-(((S)-2-amino-2,4-dimethylpentyl)oxy)-3-chlorophenyl)-N-(3-fluorocyclopentyl)pyridin-2-amine]",7.82
4,"Cc1cc(-c2ccnc3ccnn23)cnc1OC[C@](C)(N)CC(C)C [Example 264, (R)-2,4-dimethyl-1-((3-methyl-5-(pyrazolo[1,5-a]pyrimidin-7-yl)pyridin-2-yl)oxy)pentan-2-amine]",7.10
5,"CC(C)C[C@](C)(N)COc1ccc(-c2ncnc3[nH]ccc23)cc1Cl [Example 361, (S)-1-(2-chloro-4-(7H-pyrrolo[2,3-d]pyrimidin-4-yl)phenoxy)-2,4-dimethylpentan-2-amine]",8.77
6,"CC(C)C[C@](C)(N)COc1ccc(-c2ccnc(NC(=O)c3nccs3)c2)cc1C(F)(F)F [Example 258, (S)—N-(4-(4-((2-amino-2,4-dimethylpentyl)oxy)-3-(trifluoromethyl)phenyl)pyridin-2-yl)thiazole-2-carboxamide]",9.33
7,"CC(C)C[C@](C)(N)COc1ccc(-c2ccnc(NC(=O)c3cnccn3)c2)cc1C(F)(F)F [Example 404, (S)—N-(4-(4-((2-amino-2,4-dimethylpentyl)oxy)-3-(trifluoromethyl)phenyl)pyridin-2-yl)pyrazine-2-carboxamide]",9.15
8,"CC(C)C[C@](C)(N)COc1ccc(-c2ccnc(NC(=O)CC3CCCC3)c2)cc1C(F)(F)F [Example 392, (S)—N-(4-(4-((2-amino-2,4-dimethylpentyl)oxy)-3-(trifluoromethyl)phenyl)pyridin-2-yl)-2-cyclopentylacetamide]",9.15
9,"Cc1ncccc1C(=O)Nc1cc(-c2ccc(OC[C@@](C)(N)CC(C)C)c(C(F)(F)F)c2)ccn1 [Example 405, (S)—N-(4-(4-((2-amino-2,4-dimethylpentyl)oxy)-3-(trifluoromethyl)phenyl)pyridin-2-yl)-2-methylnicotinamide]",8.70
10,"Cc1cc(-c2ccnc(NC3CCOC3)c2)ccc1OC[C@@](C)(N)CC(C)C (stereo partly drawn) [Example 346, 4-(4-(((S)-2-amino-2,4-dimethylpentyl)oxy)-3-methylphenyl)-N-(tetrahydrofuran-3-yl)pyridin-2-amine]",7.64
11,"CC(C)C[C@](C)(N)COc1ccc(-c2ccnc3c2CC(=O)N3)cc1C#N [Example 302, (S)-2-((2-amino-2,4-dimethylpentyl)oxy)-5-(2-oxo-2,3-dihydro-1H-pyrrolo[2,3-b]pyridin-4-yl)benzonitrile]",8.28
12,"Cc1csc(Nc2cc(-c3ccc(OC[C@@](C)(N)CC(C)C)c(Cl)c3)ccn2)n1 [Example 262, (S)—N-(4-(4-((2-amino-2,4-dimethylpentyl)oxy)-3-chlorophenyl)pyridin-2-yl)-4-methylthiazol-2-amine]",8.72
13,"CC(C)C[C@](C)(N)COc1ccc(-c2ccnc3c2C(=O)N(C)C3)cc1C#N [Example 414, (S)-2-((2-amino-2,4-dimethylpentyl)oxy)-5-(6-methyl-5-oxo-6,7-dihydro-5H-pyrrolo[3,4-b]pyridin-4-yl)benzonitrile]",7.33
14,"CC(C)CC(N)(CO)COc1cnc(-c2ccnc(C(F)F)c2)cc1C(F)F (stereo not drawn) [Example 277, 2-amino-2-(((2′,4-bis(difluoromethyl)-[2,4′-bipyridin]-5-yl)oxy)methyl)-4-methylpentan-1-ol]",8.74
15,"Cc1cc(-c2ccnc3ccnn23)cnc1OC[C@@](C)(N)CC(C)C [Example 275, (S)-2,4-dimethyl-1-((3-methyl-5-(pyrazolo[1,5-a]pyrimidin-7-yl)pyridin-2-yl)oxy)pentan-2-amine]",8.66
16,"CC(C)C[C@](C)(N)COc1ccc(-c2ccnc3c2C(=O)NC3)cc1C#N [Example 415, (S)-2-((2-amino-2,4-dimethylpentyl)oxy)-5-(5-oxo-6,7-dihydro-5H-pyrrolo[3,4-b]pyridin-4-yl)benzonitrile]",8.51
17,"CC(C)C[C@](C)(N)COc1ccc(-c2ccnc(NCc3cccnc3)c2)cc1C(F)(F)F [Example 410, (S)-4-(4-((2-amino-2,4-dimethylpentyl)oxy)-3-(trifluoromethyl)phenyl)-N-(pyridin-3-ylmethyl)pyridin-2-amine]",8.44
18,"CC(C)C[C@](C)(N)COc1ccc(-c2ccnn3ccnc23)cc1C#N [Example 287, (S)-2-((2-amino-2,4-dimethylpentyl)oxy)-5-(imidazo[1,2-b]pyridazin-8-yl)benzonitrile]",9.30
19,"CC(C)C[C@](C)(N)COc1ccc(-c2ccnc3nccnc23)cc1F [Example 253, (S)-1-(2-fluoro-4-(pyrido[2,3-b]pyrazin-8-yl)phenoxy)-2,4-dimethylpentan-2-amine]",6.27

# More lines, now with the values ahead:
row,pIC50,SMILES
1,9.00,"CC(C)C[C@](C)(N)COc1ccc(-c2ccnc3ccnn23)cc1Cl [Example 456, (S)-1-(2-chloro-4-(pyrazolo [1,5-a]pyrimidin-7-yl)phenoxy)-2,4-dimethylpentan-2-amine]"
2,7.82,"CC(C)C[C@](C)(N)COc1ccc(-c2ccnn3cc(C4CC4)nc23)cc1F [Example 493, (S)-1-(4-(2-cyclopropylimidazo[1,2-b]pyridazin-8-yl)-2-fluorophenoxy)-2,4-dimethylpentan-2-amine]"
3,6.22,"Cc1cc(-c2ccnn3cc(C(F)(F)F)nc23)cnc1OC[C@](C)(N)CC(C)C [Example 504, (R)-2,4-dimethyl-1-((3-methyl-5-(2-(trifluoromethyl)imidazo[1,2-b]pyridazin-8-yl)pyridin-2-yl)oxy)pentan-2-amine]"
4,9.30,"Cc1cn2nccc(-c3ccc(OC[C@@](C)(N)CC(C)C)c(C(F)(F)F)c3)c2n1 [Example 498, (S)-2,4-dimethyl-1-(4-(2-methylimidazo[1,2-b]pyridazin-8-yl)-2-(trifluoromethyl)phenoxy)pentan-2-amine]"
5,7.43,"Cc1nc(-c2ccnc3ccnn23)ccc1OCC(N)(CC(C)C)C(F)(F)F (stereo not drawn) [Example 490, 1,1,1-trifluoro-4-methyl-2-(((2-methyl-6-(pyrazolo[1,5-a]pyrimidin-7-yl)pyridin-3-yl)oxy)methyl)pentan-2-amine]"
6,6.95,"CC(C)C[C@](C)(N)COc1ccc(-c2cnn3cccnc23)cc1C(F)(F)F [Example 473, (S)-2,4-dimethyl-1-(4-(pyrazolo[1,5-a]pyrimidin-3-yl)-2-(trifluoromethyl)phenoxy)pentan-2-amine]"
7,9.22,"CC(C)C[C@](C)(N)COc1ccc(-c2ccnc3ccnn23)cc1C#N [Example 460, (S)-2-((2-amino-2,4-dimethylpentyl)oxy)-5-(pyrazolo[1,5-a]pyrimidin-7-yl)benzonitrile]"
8,6.65,"CC(C)C[C@](C)(N)COc1ccc(-c2cc(Cl)nn3cc(C4CC4)nc23)cc1C#N [Example 494, (5)-2-((2-amino-2,4-dimethylpentyl)oxy)-5-(6-chloro-2-cyclopropylimidazo[1,2-b]pyridazin-8-yl)benzonitrile]"
9,7.16,"CC(C)C[C@](C)(N)COc1ccc(-c2ccnn3cc(C(F)(F)F)nc23)cc1 [Example 501, (S)-2,4-dimethyl-1-(4-(2-(trifluoromethyl)imidazo[1,2-b]pyridazin-8-yl)phenoxy)pentan-2-amine]"
10,7.54,"CCN1Cc2nccc(-c3ccc(OC[C@@](C)(N)CC(C)C)c(C(F)(F)F)c3)c2C1=O [Example 418, (S)-4-(4-((2-amino-2,4-dimethylpentyl)oxy)-3-(trifluoromethyl)phenyl)-6-ethyl-6,7-dihydro-5H-pyrrolo[3,4-b]pyridin-5-one]"
11,7.89,"Cc1cc(-c2ccnc3c2C(=O)NC3)ccc1OC[C@@](C)(N)CC(C)C [Example 428, (S)-4-(4-((2-amino-2,4-dimethylpentyl)oxy)-3-methylphenyl)-6,7-dihydro-5H-pyrrolo[3,4-b]pyridin-5-one]"
12,7.19,"CC(C)C[C@](C)(N)COc1ccc(-c2ccnc(NC3CCNCC3)c2)cc1C#N [Example 466, (S)-2-(2-amino-2,4-dimethylpentyloxy)-5-(2-(piperidin-4-ylamino)pyridin-4-yl) benzonitrile]"
13,7.82,"CC(C)C[C@](C)(N)COc1ccc(-c2ccnc(NC3CCCOC3)c2)cc1C(F)(F)F (mixture of isomers) [Example 475, 4-(4-((S)-2-amino-2,4-dimethylpentyloxy)-3-(trifluoromethyl)phenyl)-N-(tetrahydro-2H-pyran-3-yl)pyridin-2-amine]"
14,9.40,"CC(C)C[C@](C)(N)COc1ccc(-c2ccnc3ccnn23)cc1C(F)(F)F [Example 467, (S)-2,4-dimethyl-1-(4-(pyrazolo[1,5-a]pyrimidin-7-yl)-2-(trifluoromethyl)phenoxy)pentan-2-amine]"
